Results from PubChem BioAssay (NCI).
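Growth conditions: 96-well plates. Treatment: test compound, 48 hours, 5 concentrations. Analysis: linear interpolation between bracketing concentrations; unreached endpoints set to highest concentration. At the GI50, growth is halved. TGI: total growth inhibition.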

Key:
Assay in all cases: growth of human tumour cells (NCI), 48 h
786-0 renal = test system: 786-0 renal
A498 renal = test system: A498 renal
A549 NSCLC = test system: A549 NSCLC
ACHN renal = test system: ACHN renal
BT-549 breast = test system: BT-549 breast
CAKI-1 renal = test system: CAKI-1 renal
CCRF-CEM leukemia = test system: CCRF-CEM leukemia
COLO 205 colon = test system: COLO 205 colon
DU-145 prostate = test system: DU-145 prostate
HCC-2998 colon = test system: HCC-2998 colon
HCT-116 colon = test system: HCT-116 colon
HCT-15 colon = test system: HCT-15 colon
HL-60(TB) leukemia = test system: HL-60(TB) leukemia
HOP-62 NSCLC = test system: HOP-62 NSCLC
HOP-92 NSCLC = test system: HOP-92 NSCLC
HS 578T breast = test system: HS 578T breast
HT29 colon = test system: HT29 colon
IGROV1 ovarian = test system: IGROV1 ovarian
K-562 leukemia = test system: K-562 leukemia
KM12 colon = test system: KM12 colon
LOX IMVI melanoma = test system: LOX IMVI melanoma
M14 melanoma = test system: M14 melanoma
MALME-3M melanoma = test system: MALME-3M melanoma
MCF7 breast = test system: MCF7 breast
MDA-MB-231 breast = test system: MDA-MB-231 breast
MDA-MB-435 = test system: MDA-MB-435
MOLT-4 leukemia = test system: MOLT-4 leukemia
NCI-H23 lung = test system: NCI-H23 lung
NCI-H460 lung = test system: NCI-H460 lung
NCI-H522 lung = test system: NCI-H522 lung
NCI/ADR-RES ovarian = test system: NCI/ADR-RES ovarian
OVCAR-3 ovarian = test system: OVCAR-3 ovarian
OVCAR-5 ovarian = test system: OVCAR-5 ovarian
OVCAR-8 ovarian = test system: OVCAR-8 ovarian
PC-3 prostate = test system: PC-3 prostate
RXF 393 renal = test system: RXF 393 renal
SF-268 CNS = test system: SF-268 CNS
SF-295 CNS = test system: SF-295 CNS
SF-539 CNS = test system: SF-539 CNS
SK-MEL-2 melanoma = test system: SK-MEL-2 melanoma
SK-MEL-28 melanoma = test system: SK-MEL-28 melanoma
SK-MEL-5 melanoma = test system: SK-MEL-5 melanoma
SK-OV-3 ovarian = test system: SK-OV-3 ovarian
SN12C renal = test system: SN12C renal
SNB-19 CNS = test system: SNB-19 CNS
SNB-75 CNS = test system: SNB-75 CNS
SR leukemia = test system: SR leukemia
SW-620 colon = test system: SW-620 colon
T-47D breast = test system: T-47D breast
TK-10 renal = test system: TK-10 renal
U251 CNS = test system: U251 CNS
UACC-257 melanoma = test system: UACC-257 melanoma
UACC-62 melanoma = test system: UACC-62 melanoma
UO-31 renal = test system: UO-31 renal
EKVX NSCLC = test system: EKVX NSCLC
RPMI-8226 leukemia = test system: RPMI-8226 leukemia

With `COc1ccc(-c2nc(-c3nc4ccc(C(F)(F)F)cc4[nH]3)c3ccccn23)cc1` the GI50 (786-0 renal) was > 100 µM, the TGI (786-0 renal) was > 100000 nM and the GI50 (A498 renal) was > 100 µM. The TGI (A498 renal) was > 100000 nM, the GI50 (A549 NSCLC) was 28.5 µM and the TGI (A549 NSCLC) was > 100 µM. The GI50 (ACHN renal) was 63.5 µM, the TGI (ACHN renal) was > 100 µM and the GI50 (BT-549 breast) was > 100 µM. The TGI (BT-549 breast) was > 100 µM, the GI50 (CAKI-1 renal) was > 100 µM and the TGI (CAKI-1 renal) was > 100 µM. For the same compound, the GI50 (CCRF-CEM leukemia) was 7.4 µM, the TGI (CCRF-CEM leukemia) was > 100 µM and the GI50 (COLO 205 colon) was > 100 µM. For the same compound, the TGI (COLO 205 colon) was > 100 µM, the GI50 (DU-145 prostate) was > 100 µM and the TGI (DU-145 prostate) was > 100 µM. For the same compound, the GI50 (HCC-2998 colon) was 51.8 µM, the TGI (HCC-2998 colon) was > 100 µM and the GI50 (HCT-116 colon) was 26.1 µM. The TGI (HCT-116 colon) was > 100 µM, the GI50 (HCT-15 colon) was > 100 µM and the TGI (HCT-15 colon) was > 100000 nM. The GI50 (HL-60(TB) leukemia) was > 100 µM, the TGI (HL-60(TB) leukemia) was > 100 µM and the GI50 (HOP-62 NSCLC) was 38 µM. The TGI (HOP-62 NSCLC) was > 100 µM, the GI50 (HOP-92 NSCLC) was > 100 µM and the TGI (HOP-92 NSCLC) was > 100 µM. For the same compound, the GI50 (HS 578T breast) was > 100 µM, the TGI (HS 578T breast) was > 100 µM and the GI50 (HT29 colon) was 58.2 µM. The TGI (HT29 colon) was > 100 µM, the GI50 (IGROV1 ovarian) was > 100 µM and the TGI (IGROV1 ovarian) was > 100 µM. For the same compound, the GI50 (K-562 leukemia) was 35.3 µM, the TGI (K-562 leukemia) was > 100 µM and the GI50 (KM12 colon) was 36.4 µM. The TGI (KM12 colon) was > 100 µM, the GI50 (LOX IMVI melanoma) was 31.3 µM and the TGI (LOX IMVI melanoma) was > 100000 nM. The GI50 (M14 melanoma) was 83.1 µM, the TGI (M14 melanoma) was > 100 µM and the GI50 (MALME-3M melanoma) was > 100 µM. For the same compound, the TGI (MALME-3M melanoma) was > 100 µM, the GI50 (MCF7 breast) was 26.3 µM and the TGI (MCF7 breast) was > 100 µM. For the same compound, the GI50 (MDA-MB-231 breast) was 50.6 µM, the TGI (MDA-MB-231 breast) was > 100 µM and the GI50 (MDA-MB-435) was 47 µM. For the same compound, the TGI (MDA-MB-435) was > 100 µM, the GI50 (MOLT-4 leukemia) was 2810 nM and the TGI (MOLT-4 leukemia) was > 100000 nM. For the same compound, the GI50 (NCI-H23 lung) was > 100 µM, the TGI (NCI-H23 lung) was > 100 µM and the GI50 (NCI-H460 lung) was 9.73 µM. For the same compound, the TGI (NCI-H460 lung) was > 100 µM, the GI50 (NCI-H522 lung) was > 100 µM and the TGI (NCI-H522 lung) was > 100000 nM. The GI50 (NCI/ADR-RES ovarian) was 85.3 µM, the TGI (NCI/ADR-RES ovarian) was > 100 µM and the GI50 (OVCAR-3 ovarian) was > 100 µM. For the same compound, the TGI (OVCAR-3 ovarian) was > 100 µM, the GI50 (OVCAR-5 ovarian) was > 100 µM and the TGI (OVCAR-5 ovarian) was > 100000 nM. The GI50 (OVCAR-8 ovarian) was 22.7 µM, the TGI (OVCAR-8 ovarian) was > 100 µM and the GI50 (PC-3 prostate) was 4.73 µM. For the same compound, the TGI (PC-3 prostate) was > 100 µM, the GI50 (RXF 393 renal) was 30.5 µM and the TGI (RXF 393 renal) was > 100 µM. The GI50 (SF-268 CNS) was > 100 µM, the TGI (SF-268 CNS) was > 100 µM and the GI50 (SF-295 CNS) was > 100 µM. For the same compound, the TGI (SF-295 CNS) was > 100 µM, the GI50 (SF-539 CNS) was > 100 µM and the TGI (SF-539 CNS) was > 100 µM. The GI50 (SK-MEL-2 melanoma) was > 100 µM, the TGI (SK-MEL-2 melanoma) was > 100 µM and the GI50 (SK-MEL-28 melanoma) was > 100 µM. The TGI (SK-MEL-28 melanoma) was > 100 µM, the GI50 (SK-MEL-5 melanoma) was 47 µM and the TGI (SK-MEL-5 melanoma) was > 100000 nM. For the same compound, the GI50 (SK-OV-3 ovarian) was > 100 µM, the TGI (SK-OV-3 ovarian) was > 100000 nM and the GI50 (SN12C renal) was > 100 µM. For the same compound, the TGI (SN12C renal) was > 100 µM, the GI50 (SNB-19 CNS) was > 100 µM and the TGI (SNB-19 CNS) was > 100000 nM. The GI50 (SNB-75 CNS) was 48.1 µM, the TGI (SNB-75 CNS) was > 100 µM and the GI50 (SR leukemia) was 32.3 µM. For the same compound, the TGI (SR leukemia) was > 100 µM, the GI50 (SW-620 colon) was > 100 µM and the TGI (SW-620 colon) was > 100 µM. For the same compound, the GI50 (T-47D breast) was 5.33 µM, the TGI (T-47D breast) was > 100 µM and the GI50 (TK-10 renal) was > 100 µM. The TGI (TK-10 renal) was > 100 µM, the GI50 (U251 CNS) was > 100 µM and the TGI (U251 CNS) was > 100 µM. For the same compound, the GI50 (UACC-257 melanoma) was > 100 µM, the TGI (UACC-257 melanoma) was > 100 µM and the GI50 (UACC-62 melanoma) was 51.1 µM. The TGI (UACC-62 melanoma) was > 100000 nM, the GI50 (UO-31 renal) was > 100 µM and the TGI (UO-31 renal) was > 100 µM.
`COc1cc2cc(C(=O)N3CC(CCl)c4c3cc(O)c3ccccc43)[nH]c2c(OC)c1OC` (centres undefined) was tested, and the TGI (786-0 renal) was 506 nM, the TGI (A498 renal) was 820 nM and the TGI (A549 NSCLC) was > 50 µM. The TGI (BT-549 breast) was 9.94 µM, the TGI (CCRF-CEM leukemia) was < 0.005 µM and the TGI (DU-145 prostate) was > 50 µM. For the same compound, the TGI (EKVX NSCLC) was 597 nM, the TGI (HCC-2998 colon) was < 0.005 µM and the TGI (HCT-116 colon) was 5.85 µM. The TGI (HCT-15 colon) was 588 nM, the TGI (HL-60(TB) leukemia) was < 0.005 µM and the TGI (HS 578T breast) was < 0.005 µM. For the same compound, the TGI (HT29 colon) was > 50 µM, the TGI (K-562 leukemia) was > 50 µM and the TGI (KM12 colon) was > 50 µM. The TGI (LOX IMVI melanoma) was 625 nM, the TGI (M14 melanoma) was < 0.005 µM and the TGI (MALME-3M melanoma) was < 0.005 µM. For the same compound, the TGI (MOLT-4 leukemia) was 153 nM, the TGI (NCI-H460 lung) was < 0.005 µM and the TGI (NCI-H522 lung) was 155 nM. The TGI (NCI/ADR-RES ovarian) was > 50 µM, the TGI (OVCAR-3 ovarian) was 8.42 µM and the TGI (OVCAR-5 ovarian) was 549 nM. The TGI (OVCAR-8 ovarian) was > 50 µM, the TGI (RPMI-8226 leukemia) was > 50 µM and the TGI (RXF 393 renal) was < 0.005 µM. For the same compound, the TGI (SF-268 CNS) was 10.8 µM, the TGI (SF-539 CNS) was < 0.005 µM and the TGI (SK-MEL-2 melanoma) was < 0.005 µM. The TGI (SK-MEL-5 melanoma) was 6.56 nM, the TGI (SK-OV-3 ovarian) was 996 nM and the TGI (SNB-19 CNS) was 1120 nM. For the same compound, the TGI (SNB-75 CNS) was < 0.005 µM, the TGI (SR leukemia) was > 50 µM and the TGI (SW-620 colon) was > 50 µM. For the same compound, the TGI (T-47D breast) was > 50 µM, the TGI (TK-10 renal) was > 50 µM and the TGI (U251 CNS) was 24.6 µM. The TGI (UACC-62 melanoma) was 291 nM and the TGI (UO-31 renal) was > 50 µM.
